Experimental data published in US8367677B2, “Non-glycosylated/non-glycosidic/non-peptidic small molecule PSGL-1 mimetics for the treatment of inflammatory disorders” (Revotar Biopharmaceuticals AG, priority 2004, dated 2013).
pIC50: −log10 of the molar value.

Assays:
[1] = system: human E-selectin-IgG chimera; assay: Flow chamber assay, cell adhesion and rolling under flow conditions, E-selectin; format: cell-based; conditions: 125 μM compound, flow shear 1 dyne/cm^2
Method: (§1) To assess the capability of compounds to inhibit cell binding under dynamic conditions resembling the flow in a blood vessel, flow chamber assays addressing/testing binding of HL-60 cells/various cell lines to P-selectin, L-selectin and E-selectin chimeric molecules are performed.
(§2) Cell attachment under flow conditions are determined using a parallel flow chamber system. A 35 mm polystyrene culture dish is coated for 1 hour at room temperature with coating buffer (50 mM tris-(hydroxymethyl)aminomethane buffer (Tris), 150 mM NaCl, 2 mM CaCl2; pH 7,4) containing human E- or P-selectin-IgG chimera at concentrations of 2.5 μg/ml or 10 μg/ml, respectively. After removal of the coating solution non specific binding sites are blocked for an additional hour with 1% BSA in coating buffer at room temperature. After washing with assay buffer (“Roswell Park Memorial Institute 1640” (RPMI 1640)+10 mM HEPES) the dish is fitted into a parallel plate laminar flow chamber (sold from Glycotech, Rockville, Md.) and mounted on an inverted phase-contrast microscope (sold from Olympus, Hamburg, Germany) equipped with a CCD camera (JVC) that is connected to a PC. Employing a peristaltic pump (sold from Ismatec, Wertheim-Mondfeld, Germany) the re-circulating system is equilibrated with assay buffer containing 125 μM compound or vehicle control (DMSO). Cells (1 million/ml) are added to the chamber and allowed to distribute for 2 minutes at a high flow rate. The flow rate is then decreased resulting in a calculated flow shear of 1 dyne/cm^2. Video sequences of 10 low power fields are digitally recorded after 5 minutes continuous flow. The percentage of inhibition is calculated from the mean number of cells per field that attached to the coated dish surface in the presence versus absence of compound […].

[2] = target: T1, human P-Selectin-IgG-chimera (Homo sapiens, UniProt P16109); assay: Sialyl Lewis x Tyrosine Sulfate Assay (sLex TSA), P-selectin; format: binding; conditions: for inhibition at 100 µM / P-Selectin [% Inhib.]: compound at 100 μM; for inhibition at 100 µM: read-out: P-Selectin [% Inhib.]
T1 sequence (P16109 42-771 limits assumed): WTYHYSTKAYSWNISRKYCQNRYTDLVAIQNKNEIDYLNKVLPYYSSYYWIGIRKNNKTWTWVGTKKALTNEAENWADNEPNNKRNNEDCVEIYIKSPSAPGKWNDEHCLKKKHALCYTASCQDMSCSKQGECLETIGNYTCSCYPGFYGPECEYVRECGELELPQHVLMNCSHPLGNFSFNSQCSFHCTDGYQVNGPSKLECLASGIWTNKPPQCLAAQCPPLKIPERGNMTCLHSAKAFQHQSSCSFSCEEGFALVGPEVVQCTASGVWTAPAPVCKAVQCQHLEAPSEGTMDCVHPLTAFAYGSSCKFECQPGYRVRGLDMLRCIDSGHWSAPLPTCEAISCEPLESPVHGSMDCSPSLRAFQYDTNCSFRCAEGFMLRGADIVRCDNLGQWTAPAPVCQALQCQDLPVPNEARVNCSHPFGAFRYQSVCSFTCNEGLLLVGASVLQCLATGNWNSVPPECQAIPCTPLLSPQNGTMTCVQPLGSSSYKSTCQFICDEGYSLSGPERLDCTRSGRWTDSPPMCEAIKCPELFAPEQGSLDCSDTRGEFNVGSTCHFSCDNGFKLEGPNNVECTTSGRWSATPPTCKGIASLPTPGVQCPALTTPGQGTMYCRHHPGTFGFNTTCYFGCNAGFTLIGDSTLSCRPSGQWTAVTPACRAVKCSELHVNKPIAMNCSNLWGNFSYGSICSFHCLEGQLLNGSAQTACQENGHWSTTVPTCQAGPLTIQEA
Method: (§3) Compounds of the present invention are assayed on a molecular level for their ability to inhibit the binding of P-, L-, or E-selectin chimeric molecules to sLe^x and tyrosinesulfate residues linked to a polymeric matrix as a PSGL-1 substitute.
(§4) Microtiter plates are coated overnight in carbonate buffer pH9.6 with goat anti human Fc mAB (10 μg/ml). After washing in assay buffer (25 mM 4-(2-hydroxyethyl)-1-piperazineethanesulfonic acid (HEPES), 150 mM NaCl, 1 mM CaCl2 pH7.4) and blocking (3% bovine serum albumin (BSA) in assay buffer) plates are incubated for 2 h at 37° C. with human P-Selectin-IgG-chimera (0.61 nM respectively 150 ng/mL) or human L-Selectin-IgG-chimera (0.61 nM respectively 89 ng/mL) or human E-Selectin-IgG-chimera (0.61 nM respectively 131 ng/mL). 5 μl of sLe^x-tyrosine sulfate polyacrylamide (1 mg/ml) carrying 15% sLe^x, 10% Tyrosine-sulfate and 5% biotin is complexed with 20 μl Streptavidin-Peroxidase solution (1 mg/ml) and 25 μl assay buffer without CaCl2. For use in the assay, the ligand complex is diluted 1:10000 in assay buffer and further diluted 1:1 with varying amounts of compounds in assay buffer incl. 2% DMSO. This mixture is added to the wells precoated with E- or P-selectin. After incubation for 2 h at 37° C., wells are washed for six times with in assay buffer incl. 0.005% Polyoxyethylenesorbitan monolaurate (TWEEN 20), developed for 10-15 min with 20 μl 3,3′,5,5′-tetramethylbenzidine (TMB)/H2O2 substrate solution and stopped with 20 μl […]. Bound sLe^x-Tyrosine sulfate ligand complex is determined by measuring optical density at 450 nm vs. 620 nm in a Fusion alpha-FP reader (sold from Packard Bioscience, Dreieich, Germany).

[3] = target: T2, human E-Selectin-IgG-chimera (Homo sapiens, UniProt P16581); assay: Sialyl Lewis x Tyrosine Sulfate Assay (sLex TSA), E-selectin; format: binding; conditions: for inhibition at 100 µM / E-Selectin [% Inhib.]: compound at 100 μM; for inhibition at 100 µM: read-out: E-Selectin [% Inhib.]
T2 construct: fused on or other part: human IgG Fc part, a tag and dimerising handle that is captured by the goat anti-human Fc antibody on the plate
T2 sequence (P16581 22-175 limits assumed): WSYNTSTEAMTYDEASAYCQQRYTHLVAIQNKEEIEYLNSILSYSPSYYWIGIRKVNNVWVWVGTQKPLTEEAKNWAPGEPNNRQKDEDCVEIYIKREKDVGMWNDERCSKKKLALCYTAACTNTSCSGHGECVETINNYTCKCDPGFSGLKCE
Method: as §3, §4

[4] = target: T3, human L-Selectin-IgG-chimera (Homo sapiens, UniProt P14151); assay: Sialyl Lewis x Tyrosine Sulfate Assay (sLex TSA), L-selectin; format: binding; conditions: for inhibition at 100 µM / L-Selectin [% Inhib.]: compound at 100 μM; for inhibition at 100 µM: read-out: L-Selectin [% Inhib.]
T3 construct: fused on or other part: human IgG Fc part, a tag and dimerising handle that is captured by the goat anti-human Fc antibody on the plate
T3 sequence (P14151 39-318 limits assumed): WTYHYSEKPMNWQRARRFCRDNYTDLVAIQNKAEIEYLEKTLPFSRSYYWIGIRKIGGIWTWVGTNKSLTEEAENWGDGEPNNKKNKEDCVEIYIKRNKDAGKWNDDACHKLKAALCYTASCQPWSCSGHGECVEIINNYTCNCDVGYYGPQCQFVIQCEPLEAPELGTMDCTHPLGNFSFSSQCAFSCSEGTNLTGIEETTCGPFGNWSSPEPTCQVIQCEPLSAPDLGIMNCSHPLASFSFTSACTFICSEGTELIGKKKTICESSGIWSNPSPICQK
Method: as §3, §4

[5] = system: human P-selectin-IgG chimera; assay: Flow chamber assay, cell adhesion and rolling under flow conditions, P-selectin; format: cell-based; conditions: 125 μM compound, flow shear 1 dyne/cm^2
Method: as §1, §2

[6] = Parallel Artificial Membrane Permeation Assay (PAMPA); format: in vitro ADME; conditions: 16 hours, room temperature; for [% flux] at pH 4.0: pH 4.0, 500 μM donor; for [% flux] at pH 7.4: pH 7.4, 500 μM donor
Method: The test compounds are dissolved at 10 mM in DMSO and diluted to 500 μM with PBS pH 7.4 or pH 4.0, respectively resulting in ‘donor solutions’. For use as an artificial membrane, a 1% solution of lecithin (w/v) in dodecane is prepared and sonicated. Then, 5 μl of the lecithin/dodecane mixture are carefully pipetted into each donor plate well. Immediately after the application of the artificial membrane, 150 μl of drug containing donor solutions are added to each well of the donor plate. Each well of the acceptor plate is filled with 300 μl buffer (PBS with 5% DMSO at pH 7.4 or pH 4.0, respectively) and the drug-filled donor plate is placed onto the acceptor plate, making sure the membrane is in contact with the buffer. After replacement of the lid, the assembled plates are transferred into a sealed box equipped with a moistured towel and incubated at room temperature for 16 hours. Then, the wells of the acceptor plate are analyzed with LC/MS.

| Structure (SMILES) | pIC50 [2] | inhibition at 100 µM [2] [%] | inhibition at 100 µM [3] [%] | pIC50 [4] | inhibition at 100 µM [4] [%] | pIC50 [3] | [% flux] at pH 4.0 [6] [%] | [% flux] at pH 7.4 [6] [%] | P-Selectin [% Inhib.] [2] [%] | E-Selectin [% Inhib.] [3] [%] | L-Selectin [% Inhib.] [4] [%] | E-Selectin [% Inhib.] of cell attachment [1] [%] | P-Selectin [% Inhib.] of cell attachment [5] [%] |
| --- | --- | --- | --- | --- | --- | --- | --- | --- | --- | --- | --- | --- | --- |
| O=C(O)Cc1ccc(-c2ccccc2NC(=O)Cc2ccc(O)c(O)c2O)s1 [Compound 41, (5-{2-[2-(2,3,4-Trihydroxyphenyl)-acetylamino]-phenyl}-thiophen-2-yl)acetic acid] | 5.12 | 92 | 46 | 4.84 | 81 | – | – | – | – | – | – | 26 | – |
| O=C(O)Cc1ccc(-c2ccccc2NC(=O)c2cccc(-c3ccc(O)c(O)c3O)c2)s1 [Compound 48, (5-{2-[(2′,3′,4′-Trihydroxy-biphenyl-3-carbonyl)-amino]-phenyl}-thiophen-2-yl)-acetic acid] | 5.24 | 97 | 31 | 5.01 | 95 | 3.88 | – | – | – | – | – | 61 | 55 |
| O=C(/C=C/c1ccc(O)c(O)c1O)Nc1ccc(C(=O)O)cc1 [Compound 97] | 5.46 | 97 | 51 | 5.21 | 98 | 3.55 | 0 | 16 | – | – | – | – | 47 |
| Cc1oc(-c2ccc(NC(=O)Cc3cc(O)c(O)c(O)c3)cc2)cc1C(=O)O [Compound 101] | – | – | – | – | – | – | – | – | 93 | 50 | 95 | – | 99 |
| O=C(O)Cc1ccc(-c2ccccc2NC(=O)CCc2cc(O)c(O)c(O)c2)s1 [Compound 102] | 5.62 | 97 | 99 | 5.51 | 96 | 5.48 | – | – | – | – | – | 35 | 11 |
| O=C(Cc1cc(O)c(O)c(O)c1)NCc1ccc(C(=O)O)cc1 [Compound 118] | 4.83 | 79 | 53 | 4.58 | 66 | 5.06 | 0 | 1 | – | – | – | 16 | 20 |
| O=C(CCc1cc(O)c(O)c(O)c1)NCc1ccc(C(=O)O)cc1 [Compound 120] | 4.46 | 88 | 92 | 4.51 | 87 | 5.08 | – | – | – | – | – | 21 | 21 |
| O=C(Cc1cc(O)c(O)c(O)c1)Nc1cccc(C(F)(F)F)c1 [Compound 123] | – | – | – | – | – | – | 27 | 0 | – | – | – | 51 | – |

Further lines, with some results ahead:

| pIC50 [2] | inhibition at 100 µM [2] [%] | inhibition at 100 µM [3] [%] | pIC50 [4] | inhibition at 100 µM [4] [%] | pIC50 [3] | [% flux] at pH 4.0 [6] [%] | [% flux] at pH 7.4 [6] [%] | P-Selectin [% Inhib.] [2] [%] | E-Selectin [% Inhib.] [3] [%] | L-Selectin [% Inhib.] [4] [%] | Structure (SMILES) | E-Selectin [% Inhib.] of cell attachment [1] [%] | P-Selectin [% Inhib.] of cell attachment [5] [%] |
| --- | --- | --- | --- | --- | --- | --- | --- | --- | --- | --- | --- | --- | --- |
| 4.84 | 99 | 71 | 4.60 | 99 | – | – | – | – | – | – | O=C(/C=C/c1ccc(O)c(O)c1O)Nc1cccc(C(=O)O)c1 [Compound 99] | 28 | 96 |
| – | – | – | – | – | – | 12 | 12 | 73 | 29 | 77 | Cc1cccc(NC(=O)CCc2ccc(O)c(O)c2O)c1 [Compound 121] | 18 | 44 |
| – | – | – | – | – | – | 6 | 0 | 81 | 70 | 87 | Cc1cccc(NC(=O)Cc2ccc(O)c(O)c2O)c1 [Compound 122] | 27 | 22 |
| – | – | – | – | – | – | 100 | 0 | – | – | – | O=C(Cc1ccc(O)c(O)c1O)Nc1cc(Cl)cc(Cl)c1 [Compound 124] | 28 | 23 |
